From a melting point compilation (Tetko et al.; mined from patent text by program, amines drawn as free bases though some values may be those of a salt)

| melting point | SMILES |
| --- | --- |
| 105 to 107 °C | CC(=O)Nc1ncsc1-c1ccccc1 |
| 146 to 147 °C | COc1ccc2ccc(CC3=NOS(=O)N3)cc2c1 (configuration not stated) |
| 197 to 198 °C | O=C1N[C@H](Cc2ccc(F)cc2)[C@H](c2ccc(F)cc2)O1 (racemic) |
| 170 to 172 °C | Cc1sc2c(c1C)CNC(Cl)=N2 |
| 168 to 170 °C | Cc1cc2c(c(C)c1S(=O)(=O)C[N+](=O)[O-])CCCS2(=O)=O |
| 145 to 146 °C | O=C(OCN1C(=O)c2ccccc2S1(=O)=O)c1ccncc1 |
| 183 to 185 °C | Nc1cc(OCc2ccccc2)c2ncccc2c1 |
| 226 to 228 °C | NC(=O)c1ncn2c(-c3ccccc3)ccnc12 |
| 243 to 245 °C | CCn1cc(C(=O)NCCc2ccncc2)c(=O)c2cc(F)cc(C)c21 |
| > 300 °C | O=c1ccc2c(-c3ccco3)nccc2[nH]1 |
| 153 °C | O=C(NCCN1CCC(O)(c2ccc(Cl)cc2)CC1)c1cccs1 |
| 102 °C | CCc1ccc(-c2ccc(-c3ccc(C)s3)c(F)c2)cc1 |
| 169 to 170 °C | Cc1c(NC(=O)c2ccc(OC[C@@H]3CCCO3)cc2)ccc2[nH]c(CNCC(C)(C)O)cc12 |
| 104 to 105 °C | Ic1c2n(c3ccc(OC4CC4)cc13)CCC2 |
| 124 to 126 °C | O=[N+]([O-])c1cc(O)c(Br)cc1F |
| 211 to 213 °C | COc1cc(OCC(=O)O)c(C)cc1SCc1sc(-c2ccc(C(F)(F)F)cc2)nc1C |
| 88 to 90 °C | COCC(=O)OC(n1cc(C#N)c(-c2cccc(Cl)c2Cl)c1)C(Cl)(Cl)Cl (configuration not stated) |

Continued, molecule first:

| SMILES | melting point |
| --- | --- |
| CNc1nc(-c2cccnc2)nc(NC)c1C(=O)Nc1ccc(C)c(C)c1 | 285 to 286 °C |
| CC(C)(C)OC(=O)Cn1cc(Cl)c(-c2cc(Cl)cc(Cl)c2)n1 | 86 °C |
| Clc1ccc2c3c(cnc2c1)OCCN3 | 219 to 220 °C |
| CCCNC(=NC#N)Nc1cccnc1 | 164 to 165 °C |
| O=C(O)c1ccnc(Br)c1 | 214 °C |
| CC(C)NN=C(N)Nc1c(Cl)cccc1Cl | 227 to 228 °C |
| CN1CCN=C(c2ccccc2)c2cc(C#N)ccc21 | 149 to 150 °C |
| Cc1cc(C#N)cc2c(=O)oc(-c3cc(Br)nn3-c3ncccc3Cl)nc12 | 263 to 267 °C |
| Nc1ncnc2c1ncn2Cc1oc2ccccc2c(=O)c1-c1ccccc1 | 173 to 175 °C |
| CN1CC(C(=O)c2ccc(Cc3ccc(F)cc3)o2)=C(O)C1=O | 141 to 143 °C |
| CC(C)CN1CCn2c1nc1[nH]cnc1c2=O | 233 to 237 °C |
| CC(=O)N(C(C)=O)c1ccc(Br)c([N+](=O)[O-])c1OCc1ccccc1 | 148 °C |
| Nc1c([N+](=O)[O-])sc2ccc([N+](=O)[O-])cc12 | 288 to 291 °C |
| O=CNc1cccc(C(=NOC(=O)C(Cl)Cl)C(=O)O)n1 | 88 to 90 °C |
| CCCCOC1C=CC(=O)N1S(=O)(=O)c1ccc(OC)cc1 (configuration not stated) | 65 to 66 °C |
| CNC(=O)COC[C@@H]1CC(c2ccc(-c3ccc(N4C[C@H](Cn5ccnn5)OC4=O)cc3F)cn2)=NO1 | 153 to 156 °C |
| CC(CCC(=O)N(C)C#N)C(=O)N(C)C#N (configuration not stated) | 59.2 to 60.9 °C |
| O=C1CCCN1c1cccc(Cc2n[nH]c(=O)c3ccccc23)c1 | 206 to 207 °C |
| CCCCCCCCNC(=O)[C@@H]1C[C@H]1c1ccc([N+](=O)[O-])cc1 (relative stereo) | 126 to 129 °C |
| Nc1nc(F)c(OC(F)F)c(Cl)n1 | 77 to 80 °C |
| COC(=O)COc1ccc(SCc2cc(-c3ccc(Cl)cc3)on2)c2c1CCCO2 | 131 to 133 °C |
| CC(=O)NC(=Cc1ccc(F)cc1)C(=O)OCCC(F)=C(F)F | 116 °C |
| CCN(c1nc2ccccc2[nH]1)C1CCN(CCc2ccccc2)CC1 | 205 °C |
| CC1=Nc2c3cc(C(=O)O)nc-3ccn2C1 | 325 to 327 °C |
| CCC(NC(=O)c1c(O)c(-c2ccccc2)nc2ccccc12)c1ccccc1 (single isomer, unassigned; (-)) | 122 to 125 °C |
